Holding throughout (format): cell-based, human
Assay [1] deals with motor neurons induced to differentiate from iPS cells derived from ALS patients (FUS-ALS) having a mutation in FUS. The experiment in a line: Stress granule formation (G3BP immunostaining), FUS-ALS motor neurons. How it is done: On day 40 from the start of differentiation induction, the formation of stress granules was examined using each differentiation-induced motor neuron in Example I-1. The detection of stress granules was performed by immunostaining with G3BP, which is a marker of stress granules.
(§1) Using the differentiation-induced motor neurons in Example I-1, drugs which cause the ALS phenotype to be restored were screened from existing drug libraries with the neurite length, ectopic localization of FUS protein, stress granule formation, LDH leakage ratio, CV-caspase 3-positive ratio, phosphorylated TDP-43 protein inclusion formation, and the like as indices.
(§2) As a result of the screening, ropinirole was found as a promising therapeutic agent for ALS. Tables 5 and 6 show the improvement ratio (%) in the ALS phenotype due to adding ropinirole to the medium. Here, ropinirole was added to the medium on days 35 to 40 from the start of the differentiation induction of each iPS cell. Here, it is assumed that days 35 to 40 from the start of differentiation induction correspond to the early stage of the ALS disease.
(§3) The improvement ratio (%) of the ALS phenotype was calculated by Equation (1).
(§4) [formula] [In Equation (1), A represents a measurement value of motor neurons induced to differentiate from iPS cells derived from ALS patients in the absence of ropinirole, and B represents a measurement value of motor neurons induced to differentiate from iPS cells derived from ALS patients in the presence of ropinirole, and C represents a measurement value of motor neurons induced to differentiate from iPS cells derived from healthy subjects in the absence of ropinirole.]
(§5) Subsequently, in the same manner as above, the efficacy in cases of administering lower concentrations of ropinirole was evaluated.
(§6) Each drug was added to the medium at a final concentration of 10 μM.

Assay [2] relates to motor neurons induced to differentiate from iPS cells derived from ALS patients (TDP-43-ALS) having a mutation in TDP-43. The experiment in a line: Phosphorylated TDP-43 protein inclusion formation, TDP-43-ALS motor neurons.
Description: Therefore, on day 40 from the start of differentiation induction, each differentiation-induced motor neuron in Example I-1 was immunostained and the formation of phosphorylated TDP-43 protein inclusions was examined.
as §1, §2, §3, §4, §5, §6

The test system of assay [3] is motor neurons induced to differentiate from iPS cells derived from SALS patients. The experiment in a line: LDH leakage ratio, sporadic ALS model (Example III-3). The note with it: final concentration 1 μM, days 35 to 40, measured on day 40, FIG. 12. An excerpt:
In the same manner as in Example I-1, iPS cells derived from sporadic ALS (may be referred to below as “SALS”) patients were differentiated into motor neurons. All the iPS cells used were derived from dermal fibroblasts. Below, each differentiated motor neuron is identified by the patient number from whom the neuron was derived.
In the same manner as in Example II-1, iPS cells derived from sporadic ALS (SALS) patients were induced to differentiate into motor neurons, and then ropinirole with a final concentration of 1 μM was added to the medium. More specifically, for the period of days 35 to 40 from the start of differentiation induction, ropinirole having a final concentration of 1 μM was added to the medium. In addition, a group for which ropinirole was not added to the medium was prepared as a control. In addition, for comparison, iPS cells derived from healthy subjects were differentiated into motor neurons in the same manner as in Example I-1. No ropinirole was added to the medium of these motor neurons. As the iPS cells derived from a healthy subject, the same cells as used in Example I-1 were used.
Subsequently, on day 40 from the start of differentiation induction, the LDH leakage ratio was measured for each motor neuron in the same manner as in Example I-4.
FIG. 12 is a graph showing the measurement result of the LDH leakage ratio. […]
For orientation: Release of lactate dehydrogenase indicates damage to the cell membrane.

In assay [4] the test system is motor neurons induced to differentiate from iPS cells derived from ALS patients (FUS-ALS) having a mutation in FUS. The experiment in a line: Neurite length in late stage ALS disease, FUS-ALS (Example I-9). The settings on record: final concentration 1 μM, added days 50 to 62 from start of differentiation induction, FIG. 14. How it is done:
The efficacy of ropinirole was evaluated in the same manner as in Example I-8, except that the timing of adding ropinirole was changed to days 50 to 62 from the start of the differentiation induction of each iPS cell. It is assumed that days 50 to 62 after the start of induction of differentiation correspond to the late stage of the ALS disease.
Specifically, ropinirole was added to a medium of motor neurons induced to differentiate from iPS cells derived from ALS patients (FUS-ALS) having a mutation in FUS and motor neurons induced to differentiate from iPS cells derived from ALS patients (TDP-43-ALS) having a mutation in TDP-43 and the changes over time in the neurite length were measured. The measurement of neurite length was carried out in the same manner as in Example I-2. Ropinirole was added to the medium at a final concentration of 1 μM.
FIG. 14(a) is a graph showing the results of measurement of the changes over time in the neurite length of each motor neuron. In FIG. 14(a), the vertical axis represents the neurite length (relative value), the horizontal axis represents the number of days of culturing from the start of differentiation induction, and “+ROPI” represents the result of adding ropinirole to the medium. In addition, FIG. 14(b) is a graph enlarging the boxed portion of the graph of FIG. 14(a). […]

Where [5] appears, read: final concentration 0.1 μM, added days 35 to 40.
Where [6] appears, read: final concentration 1 μM, added days 35 to 40.
The mark [7] stands for this setting: final concentration 10 μM, added days 35 to 40.

Take `CCCN(CCC)CCc1cccc2c1CC(=O)N2` [Ropinirole, 4-(2-di-n-propylaminoethyl)-2(3H)-indole]: the “Stress granule formation improvement ratio” value in assay [1] (final concentration 0.1 nM) is 8.2%; in assay [1] (final concentration 1 nM), 23.2%; in assay [1] (final concentration 10 nM), 39.3%; in assay [1] (setting [5]) it was 36.6%; in assay [1] (setting [6]), 34.4%; in assay [1] (setting [7]) it was 66.1%. Also, the “TDP-43 inclusion formation improvement ratio” value in assay [2] (final concentration 0.1 nM) is 15.3%; in assay [2] (final concentration 1 nM), 55.3%; in assay [2] (final concentration 10 nM), 60.3%; in assay [2] (setting [5]), 56.2%; in assay [2] (setting [6]), 69.2%; in assay [2] (setting [7]), 74.2%. In addition, the LDH leakage ratio entry in assay [3] was “significantly decreased”. Further, the “Neurite length (changes over time), late stage” value in assay [4] is listed as “neuroprotective action (maintenance of neurite length)”.

For the origin of these results see patent US12678423B2, “Therapeutic agent for amyotrophic lateral sclerosis and composition for treatment” (KEIO UNIVERSITY, priority 2016, dated 2026).
